Results from BindingDB's records for patent US20260022122 (Checkmate Therapeutics, 2026).

biological target: Nicotinamide phosphoribosyltransferase (Homo sapiens, UniProt P43490); experiment: Measurement of NamPT Inhibitory Ability IC50
Experimental: To test the effect of the compound prepared in each Example on the substrate decomposition rate (Vmax/min) mediated by NamPT enzyme, IC50 was calculated. In this experiment, the NamPT colorimetric assay kit (ab221819) produced by Abcam was used, and Graph prism software was used for IC50 calculation. PRPP, ATP, NMNAT1, NamPT recombinant proteins, and various concentrations of the compound of each Example (half-log step dilution from 100 μM) were added to nicotinamide to synthesize nicotinamide adenine dinucleotide (NAD) from the nicotinamide, and a total of 60 μL of the reaction solution was reacted at room temperature for 1 hour. WST-1 formazan converted by NAD generated by adding WST-1 was measured. The result of the reaction was obtained by the following formula by measuring absorbance using EnVision2105 (PerkinElmer) at 450 nm for 60 minutes at 2-minute intervals.

Sequence of Nicotinamide phosphoribosyltransferase (P43490 whole entry): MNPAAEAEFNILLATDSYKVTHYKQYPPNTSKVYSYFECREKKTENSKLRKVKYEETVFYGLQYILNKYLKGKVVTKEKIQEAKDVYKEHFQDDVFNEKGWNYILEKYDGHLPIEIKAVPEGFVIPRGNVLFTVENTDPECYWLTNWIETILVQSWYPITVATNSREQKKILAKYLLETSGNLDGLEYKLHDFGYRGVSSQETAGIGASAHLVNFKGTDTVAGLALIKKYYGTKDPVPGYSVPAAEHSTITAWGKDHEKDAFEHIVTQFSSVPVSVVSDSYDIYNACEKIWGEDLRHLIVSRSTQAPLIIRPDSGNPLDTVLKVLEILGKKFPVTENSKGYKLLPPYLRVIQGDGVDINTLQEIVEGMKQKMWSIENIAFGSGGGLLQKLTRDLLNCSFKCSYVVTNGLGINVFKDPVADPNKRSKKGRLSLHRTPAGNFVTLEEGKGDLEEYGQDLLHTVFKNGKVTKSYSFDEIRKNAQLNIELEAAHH

Row | IC50 [nM] | SMILES
1 | < 50 | CC(C)c1ccc2nc(-c3ccc(CNC(=O)c4cnc5nccn5c4)cc3)oc2c1
2 | < 50 | CS(=O)(=O)Nc1ccc2oc(-c3ccc(CNC(=O)c4cnc5nccn5c4)cc3)nc2c1 [US20260022122, Example 47]
3 | < 50 | Cc1ccc2sc(-c3ccc(CNC(=O)c4cnc5nccn5c4)cc3)nc2c1 [US20260022122, Example 48]
